In US20230134986A1, “GLUCOSE TRIPTOLIDE CONJUGATES AND USES THEREOF” (The Johns Hopkins University, priority 2020, published 2023):
Like-named read-outs stand apart in the source and are kept apart here.

Assays:
Renal Proximal Tubule = assay: XTT viability assay, renal proximal tubule cells; assay type: cell-based; conditions: Homo sapiens, Primary normal cells
Text: (§1) Cells and culture conditions. Primary astrocytes (Lonza, Walkersville, Md.; ABM™ Basal Media with AGM™ SingleQuots™ Supplement Pack), fibroblast (ATCC; Fibroblast Basal Medium (ATCC© PCS-201-030™) with Fibroblast Growth Kit-Serum-free (ATCC© PCS-201-040™)), airway epithelial cell (ATCC; Airway Epithelial Cell Basal Medium (ATCC© PCS-300-030™) with Bronchial Epithelial Cell Growth Kit (ATCC© PCS-300-040™)), renal proximal tubule (ATCC; Renal Epithelial Cell Basal Medium (ATCC© PCS-400-030™) with Renal Epithelial Cell Growth Kit (ATCC© PCS-400-040™)), prostate epithelial cell (Lonza; PrEGM™ BulletKit™) and mammary epithelial cell (Lonza; MEBM™ BulletKit™) were kept in a humidified incubator at 37° C. adjusted to 5% CO2. […]
(§2) XTT assay. […] Cell viability was measured using the R&D Systemsm TACS XTT Cell Proliferation/Viability Assay (R&D Systems, Minneapolis, Minn.).

[1] = tested on: PC3 prostate cancer cells expressing firefly luciferase; assay: Experimental metastatic prostate cancer mouse model (PC3/ML/fluc, tail vein); assay type: in vivo; conditions: for tumor cells by bioluminescence imaging: 1 mg/kg daily for 30 days; for Median survival time: i.p. once daily for 30 days
Description: In vivo tumor xenograft assay. Animal experiments were performed following the protocols approved by the Johns Hopkins University Animal Care and Use Committee. The experimental murine model of human prostate cancer metastasis used in this study was generated as previously described. (Bhatnagar et al. (2014) Cancer Res. 74:5772-81) Briefly, four-to six-week-old, male NOD/SCID/IL2R^γnull (NSG, purchased from Animal Resources Core, JHU) were injected with a million PC3/ML/fluc cells via tail vein. Tumor formation was confirmed by bioluminescence imaging (BLI) using the IVIS Spectrum Imaging System (Caliper Life Sciences, Hopkinton, Mass.) three weeks after injection and the mice were given indicated doses of drug once daily (intraperitoneal injection) for 30 days. Tumor progression was then monitored weekly by BLI and survival monitored concurrently.

Prostate Epithelial cell = assay: XTT viability assay, prostate epithelial cells; assay type: cell-based; conditions: Homo sapiens, Primary normal cells
Text: as §1, §2

Mammary Epithelial cell = assay: XTT viability assay, mammary epithelial cells; assay type: cell-based; conditions: Homo sapiens, Primary normal cells
Text: as §1, §2

A253 = assay: XTT viability assay, A253; assay type: cell-based; conditions: Homo sapiens, Head and Neck Cancer
Text: as §1, §2

Astrocyte = assay: XTT viability assay, primary astrocytes; assay type: cell-based; conditions: Homo sapiens, Primary normal cells
Text: as §1, §2

HUVEC = assay: XTT viability assay, HUVEC; assay type: cell-based; conditions: Homo sapiens, Primary normal cells
Airway Epithelial cell = assay: XTT viability assay, airway epithelial cells; assay type: cell-based; conditions: Homo sapiens, Primary normal cells
Text: as §1, §2

SW1990 = assay: XTT viability assay, SW1990; assay type: cell-based; conditions: Homo sapiens, Pancreatic Cancer
Text: as §1, §2

Cancer cell lines = assay: XTT viability assay, panel of cancer cell lines (means and ranges); assay type: cell-based; conditions: Homo sapiens
Text: Cells and culture conditions. Primary astrocytes (Lonza, Walkersville, Md.; ABM™ Basal Media with AGM™ SingleQuots™ Supplement Pack), fibroblast (ATCC; Fibroblast Basal Medium (ATCC© PCS-201-030™) with Fibroblast Growth Kit-Serum-free (ATCC© PCS-201-040™)), airway epithelial cell (ATCC; Airway Epithelial Cell Basal Medium (ATCC© PCS-300-030™) with Bronchial Epithelial Cell Growth Kit (ATCC© PCS-300-040™)), renal proximal tubule (ATCC; Renal Epithelial Cell Basal Medium (ATCC© PCS-400-030™) with Renal Epithelial Cell Growth Kit (ATCC© PCS-400-040™)), prostate epithelial cell (Lonza; PrEGM™ BulletKit™) and mammary epithelial cell (Lonza; MEBM™ BulletKit™) were kept in a humidified incubator at 37° C. adjusted to 5% CO2. Prostate (PC3, LNCaP, DU-145), breast (MDA-MB-231, MDA-MB-453, SK-BR-3), head and neck (A253, Detroit 562, SCC-25), melanoma (SK-Mel-3, SK-Mel-1, RPMI-7951), pancreatic (CfPAC-1, BxPC3, SW1990), lung (A549, NCI-H1299, NCI-H1437) and liver (SNU-475, SK-HEP-1, SNU-387) cancer cell lines were obtained from ATCC and cultured in their respective media (prostate cells: RPMI-1640, MDA-MB-231: RPMI-1640, MDA-MB-453: Leibovitz's L-15, SK-BR-3: McCoy's 5a, A253: McCoy's 5a, Detroit 562: EMEM, SCC-25: DMEM, SK-Mel-3: McCoy's 5a, SK-Mel-1: EMEM, RPMI-7951: EMEM), CfPAC-1: IMDM, BxPC3: RPMI-1640, SW1990: Leibovitz's L-15), A549: F-12K, NCI-H1299: RPMI-1640, NCI-H1437: RPMI-1640, SNU-475: RPMI-1640, SK-HEP-1: EMEM, SNU-387: RPMI-1640. All media were supplemented with 10% (vol/vol) filtered fetal bovine serum (FBS, Invitrogen, Carlsbad, Calif.), 1% penicillin/streptomycin (Invitrogen) and maintained in a humidified incubator at 37° C. with 5% CO2 except for MDA-MB-453 and SW1990 grown at 37° C. without CO2 control. Wild type (ATCC) and C342T XPB knock-in cells (named T7115) of Human Embryonic Kidney 293T (HEK293T), HeLa (ATCC) were cultured in DMEM (GIBCO) with 10% (vol/vol) filtered fetal bovine serum (FBS, Invitrogen, Carlsbad, Calif.), 1% penicillin/streptomycin (Invitrogen).
XTT assay. Five thousand cells/well were plated on flat-bottom, transparent 96-well plate in a full growth media and incubated at appropriate culture conditions. Twenty four hours after seeding, cells were treated with indicated drugs and incubated for 47 hrs. Cell viability was measured using the R&D Systemsm TACS XTT Cell Proliferation/Viability Assay (R&D Systems, Minneapolis, Minn.).

CfPAC-1 = assay: XTT viability assay, CfPAC-1; assay type: cell-based; conditions: Homo sapiens; Pancreatic Cancer, CfPAC-1, XTT
Text: as §1, §2

SCC-25 = assay: XTT viability assay, SCC-25; assay type: cell-based; conditions: Homo sapiens; Head and Neck Cancer, SCC-25, XTT
Text: as §1, §2

[2] = 1 mg/kg, days after initiation of treatment
[3] = Cancer cell lines (n = 21), read-out: mean IC50 by cell type
[4] = Less sensitive lines (n = 13), IC50 ≥ 1 μM, read-out: mean IC50 by cell type
[5] = Sensitive lines (n = 8), IC50 < 1 μM, read-out: mean IC50 by cell type

Row | SMILES | IC50 (Renal Proximal Tubule) [µM] | tumor cells by bioluminescence imaging [1] | Median survival time [1, 2] [days] | IC50 (Prostate Epithelial cell) [µM] | IC50 (Mammary Epithelial cell) [µM] | IC50 (A253) [µM] | IC50 (Astrocyte) [µM] | IC50 (HUVEC) [µM] | IC50 (Airway Epithelial cell) [µM] | IC50 (SW1990) [µM] | IC50 (Cancer cell lines; [3]) [µM] | IC50 (Cancer cell lines; [4]) [µM] | IC50 (Cancer cell lines; [5]) [µM] | IC50 (CfPAC-1) [µM] | IC50 (SCC-25) [µM] | Median survival time ([1]; 0.25 mg/kg) [days] | Median survival time ([1]; 0.5 mg/kg) [days] | longest survival ([1]; 1 mg/kg treatment group, versus 26 days for untreated group) [days] | IC50 (Cancer cell lines; with the exception of SNU-387 and NCI-H1299, read-out: range of IC50 values for cancer cell lines) [µM]
1 | CC(C)[C@]12O[C@H]1[C@@H]1O[C@]13[C@]1(O[C@H]1C[C@H]1C4=C(CC[C@@]13C)C(=O)OC4)[C@@H]2OC(=O)CCC(=O)O[C@@H]1OC(CO)[C@@H](O)C(O)C1O (stereo partly shown) [Compound 10] | 4.83 ± 1.54 | tumor cells were cleared by week 2 of treatment | 76 | 5.27 ± 2.29 | 2.56 ± 0.29 | 0.71 ± 0.47 | 5.31 ± 4.29 | 1.37 ± 0.73 | 4.12 ± 1.39 | 1.52 ± 0.33 | 2.42 ± 2 | 3.7 ± 2.33 | 0.49 | 0.51 ± 0.35 | 1.26 ± 0.99 | – | – | – | –
2 | CC(C)[C@]12O[C@H]1[C@@H]1O[C@]13[C@]1(O[C@H]1C[C@H]1C4=C(CC[C@@]13C)C(=O)OC4)[C@@H]2OC(=O)CCCO[C@@H]1OC(CO)[C@@H](O)C(O)C1O (stereo in doubt) [Compound 1] | 5.94 ± 2.21 | undetectable levels of cancer cells two weeks after cessation of treatment | 84 | 4.72 ± 3.48 | 4.31 ± 1.03 | 0.54 ± 0.4 | 10.9 ± 9.66 | 3.98 ± 1.15 | 7.13 ± 2.84 | 6.48 ± 2.79 | 3.94 ± 3.26 | 6.25 ± 3.68 | 0.47 ± 0.06 | 0.47 ± 0.32 | 1.63 ± 0.78 | 46 | 76 | 86 | 0.26 to 6.5
